{"source": "patent US8309768B2", "about": "“FTY720-derived anticancer agents” (The Ohio State University Research Foundation, priority 2010, dated 2012)", "key": {"primary CLL cells": {"test_system": "primary CLL cells", "assay": "Cytotoxicity in primary CLL cells (Annexin V / propidium iodide flow cytometry)", "format": "cell-based", "description": "Antitumor and other effects of OSU-2S were also evaluated in Chronic Lymphoid Leukemia cells. OSU-2S cytotoxicity in primary CLL cells is measured at 24 hrs by staining for Annexin V and Propidium Iodide using Flow cytometer. The number of live cells (stained negative for both the stains) were normalized to untreated control. Fludarabine metabolite (2-Fara) was used as a control.\nThe effect of OSU-2S was evaluated in 3 different CLL cell lines (WROTH<THOU, and RAHUE) over a 24 hour period, as shown in FIG. 9. Time dependent OSU-2S cytotoxicity in primary CLL cells was measured by treating the cells with OSU-2S (8 μM) for indicated period of time and washed and cultured in the fresh media for 24 hr. The number of live cells stained negative for Annexin V and Propidium Iodide were measured at 24 hrs by using Flowcytometer and normalized to untreated control.\nCD37 activation and OSU-2S produced enhanced cytotoxicity in CLL cells, as detected by flow cytometer at 24 hr. in CLL cells treated with CD37 antibody and cross linker or OSU-2S 8 μM or with both are stained for Annexin V and propidium iodide at 24 hr."}, "PLC5 cells": {"test_system": "PLC5 cells", "assay": "MTT cell viability assay, PLC5", "format": "cell-based", "conditions": "24 h of treatment", "description": "Cell lines, culture and reagents. The HCC cell lines Hep3B, PLC5 and Huh7, as well as primary nonmalignant human hepatocytes were used in this study. Cancer cells were cultured in Dulbecco's Modified Eagle's medium (DMEM) supplemented with 10% fetal bovine serum (FBS). Hepatocytes were maintained in defined Hepatocyte Culture Medium. […] Various polyclonal and monoclonal antibodies were used for western blotting, immunocytochemical, and flow cytometric analyses.\n(§1) Cell viability assay. Cell viability was assessed by 3-(4,5-dimethylthiazol-2-yl)-2,5-diphenyl-2H-tetrazolium bromide (MTT) assays in six replicates. Cells were seeded (4,000 cells/well; 96-well plate) for 24 h and treated with test agents in 5% FBS-supplemented DMEM. After treatment, cells were incubated in medium containing 0.5 mg/ml MTT (37° C., 2 h). Reduced MTT was dissolved in DMSO (200 μL/well) and absorbances measured at 570 nm."}, "CLL cells [1]": {"test_system": "CLL cells", "assay": "Western blot analysis in CLL cells (PARP, caspase 3, caspase 9)", "format": "cell-based", "source_text": "Western blot analysis as carried out to further observe the effects of OSU-2S in CLL cells. […] OSU-2S in CLL activates caspase, as evidenced by cleavage of poly (ADP-ribose) polymerase (PARP). Jurkat cell with or without UV irradiation were included as controls. […] OSU-2S was also shown to activate caspase 3 in CLL cells. […] Finally, OSU-2S activates caspase 9 in CLL."}, "[2]": {"target": "T1, S1P1 receptor-overexpressing Huh7 cells (Homo sapiens, UniProt P21453)", "T1 construct": "expressed in transfected cells", "T1 sequence (P21453 whole entry)": "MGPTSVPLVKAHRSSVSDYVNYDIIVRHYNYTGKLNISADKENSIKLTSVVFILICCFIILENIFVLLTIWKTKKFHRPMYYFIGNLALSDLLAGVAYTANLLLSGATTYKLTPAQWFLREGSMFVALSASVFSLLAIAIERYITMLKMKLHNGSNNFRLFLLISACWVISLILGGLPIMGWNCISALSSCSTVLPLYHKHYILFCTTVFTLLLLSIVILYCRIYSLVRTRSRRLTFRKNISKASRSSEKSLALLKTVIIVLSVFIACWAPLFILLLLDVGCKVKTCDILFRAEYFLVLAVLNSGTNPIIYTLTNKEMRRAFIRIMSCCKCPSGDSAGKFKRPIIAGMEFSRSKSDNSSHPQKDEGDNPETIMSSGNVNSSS", "assay": "Cell viability in stable S1P1 receptor transfectants", "format": "cell-based", "conditions": "two stable S1P1 clones vs wild-type Huh7", "description": "as §1\nOverexpression of S1P1 Receptors. Huh7 or Hep3B cells were transfected with plasmids encoding S1PR1, Flag-tagged GST-π or hemagglutinin (HA)-tagged, CA-Akt. The corresponding empty vectors were used as controls. Stable clones were selected over 3 weeks by geneticin, and the expression of cloned proteins was confirmed by Western blotting."}, "[3]": {"test_system": "lymphocytes in peripheral blood", "assay": "In vivo evaluation of T-lymphocyte homing", "conditions": "CD2F1 mice, i.p., 6 h", "description": "In vivo evaluation of T-lymphocyte homing. […] Six hours later, animals were sacrificed, and peripheral blood mononuclear cells were prepared as described. Dragun et al., Kidney Int 65, 1076-1083 (2004). Cells were stained with FITC-labeled rat anti-mouse CD3 molecular complex and PE-labeled rat anti-mouse CD45RA (4° C., in darkness, 30 min), and analyzed by flow cytometry."}, "[4]": {"target": "T1, S1P1 receptor-overexpressing Huh7 cells", "assay": "Immunocytochemical analysis of S1P1 receptor internalization", "format": "cell-based", "conditions": "immunocytochemistry", "protocol": "Immunocytochemistry. Immunocytochemical analysis of S1P1 internalization and PKCδ nuclear translocation were performed as described. […] Briefly, treated cells were washed, fixed with 4% paraformaldehyde, and permeabilized with 0.1% Triton X-100. After blocking with 2% FBS, cells were incubated with rabbit anti-S1P1 or rabbit anti-PKCδ antibodies (1:200 dilution, 4° C., 24 h), followed by Alexa Fluor 488-conjugated goat anti-rabbit IgG (room temperature, 1 h). Nuclei were counterstained with a 4,6-diamidino-2-phenylindole (DAPI)-containing mounting medium (Vector Laboratories, Burlingame, Calif.)."}, "[5]": {"test_system": "SphK2 siRNA-transfected Huh7 cells", "assay": "Cell viability after siRNA-mediated knockdown of SphK2", "format": "cell-based", "conditions": "SphK2 siRNA vs scrambled", "description": "as §1\nSmall interfering (si)RNA- or short hairpin (sh)RNA-mediated knockdown. PLC5 and Huh7 cells were transfected with the following siRNA duplexes or shRNA plasmids according to the manufacturer's protocol for the knockdown of target genes: siRNA: glutathione S-transferase (GST)-π and sphingosine kinase 2 (SphK2); shRNA constructs: pKD-PKCδ-v2. Stable clones were isolated from Huh7 cells transfected with shRNA plasmids were further subjected to stable clone isolation by geneticin. Immunoblotting was performed to confirm the knockdowns."}, "[6]": {"test_system": "Hep3B, Huh7, and PLC5 cells", "assay": "ROS production by flow cytometry with DCFDA", "format": "cell-based", "conditions": "1 h of treatment", "description": "Flow cytometry. For assessment of apoptosis, treated cells were stained with Annexin V-Alexa Fluor 488 and propidium iodide according to the vendor's protocols (Molecular Probes). For caspase-3 activity, cells were incubated with the fluorogenic caspase-3 substrate (Ac-DMQD)-2-Rh110 for 20 min. ROS production was detected using the fluorescence probe 5-(and-6)-carboxy-2′,7′-dichlorodihydrofluorescein diacetate (DCFDA) as described. Hung et al., Cancer Res., 68, 1204-1212 (2008). Data were analyzed by ModFitLT V3.0 software program."}, "CLL cells [7]": {"test_system": "CLL cells", "assay": "ROS induction in CLL cells (dihydroethidium staining)", "format": "cell-based", "conditions": "8 μM, untreated about 40%", "description": "The induction of Reactive Oxygen Species (ROS) in CLL cells by OSU-2S was detected by staining OSU-2S 8 μM treated CLL cells with dihyroethidium. The ROS in the cells oxidizes DHE to ethidium staining the nucleus with a bright red fluorescence detected by flow cytometer. A hydrogen peroxide solution was used as a control."}}}
{"compound": "CCC[C@@](N)(CO)CCc1ccc(OCCCCCC(C)C)cc1", "note": "[OSU-2S, (S)-2-amino-2-(4-[(6-methylheptyl)-oxy]phenethyl)pentan-1-ol]", "values": [{"measurement": "time dependent cytotoxicity", "setting": "primary CLL cells; 8 μM for indicated time, washed, cultured 24 hr, 3 CLL cell lines", "result": "decreased number live cells over time"}, {"measurement": "live cells (negative for Annexin V and propidium iodide)", "setting": "primary CLL cells; CLL cells, 24 hr, OSU-2S 8 μM and/or CD37 antibody and cross linker", "result": "about 30%"}, {"measurement": "growth (live cells normalized to untreated control)", "setting": "primary CLL cells; primary CLL cells, 24 hrs, OSU-2S at 8 μM", "result": "about 30%"}, {"measurement": "IC50", "setting": "PLC5 cells", "result": 3.5, "unit": "µM"}, {"measurement": "caspase 3 activation", "setting": "CLL cells [1]; 24 and 48 hours, products at about 16-18 kD", "result": "caspase 3 cleaved products"}, {"measurement": "PARP cleavage", "setting": "CLL cells [1]; 24 and 48 hours, vs untreated", "result": "higher levels of PARP"}, {"measurement": "caspase 9 activation", "setting": "CLL cells [1]; products at about 30-34 kD", "result": "caspase 9 cleaved products"}, {"measurement": "effect of S1P1 receptor overexpression on antiproliferative activity", "setting": "[2]", "result": "no protective effect"}, {"measurement": "effect on number of T lymphocytes in peripheral blood", "setting": "[3]; 5 mg/kg", "result": "modest decrease"}, {"measurement": "effect on number of T lymphocytes in peripheral blood", "setting": "[3]; 1 and 2 mg/kg", "result": "no appreciable effect"}, {"measurement": "changes in circulating B lymphocytes", "setting": "[3]", "result": "no comparable changes"}, {"measurement": "S1P1 receptor internalization and clustering in the cytoplasm", "setting": "[4]", "result": "failed to show any appreciable effect"}, {"measurement": "effect of SphK2 knockdown on antiproliferative activity (sensitizing effect)", "setting": "[5]", "result": "not observed"}, {"measurement": "ROS production", "setting": "[6]", "result": "to a greater extent than FTY720"}, {"measurement": "DHE positive cell %", "setting": "CLL cells [7]", "result": "about 70%"}]}
